Measured values: PubChem BioAssay AID180 (DTP/NCI, 2004)

Tested on: BDF1 mice, Adenocarcinoma 755 s.c., tumor weight T/C
Assay: NCI In Vivo Anticancer Drug Screen. Data for tumor model Adenocarcinoma 755 (subcutaneous) in B6D2F1 (BDF1) mice
Conditions: endpoint: mean tumor weight, schedule: Q01DX011 (ip), higher = larger tumour
Outline: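 Tumor-bearing mice receive test compound while controls get vehicle alone. Antitumor effect is scored from survival or tumor dimensions as a T/C quotient.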

CCOC=Nc1c(N)ncnc1Cl
T/C (dose: 30.0 mg/kg/injection, vehicle: carboxymethylcellulose (CMC)): 67 % of control | T/C (dose: 50.0 mg/kg/injection, vehicle: carboxymethylcellulose (CMC)): 107 % of control | T/C (dose: 60.0 mg/kg/injection, vehicle: carboxymethylcellulose (CMC)): 34 % of control | T/C (dose: 62.5 mg/kg/injection, vehicle: olive oil, sesame oil, peanut oil): 62 % of control | T/C (dose: 100.0 mg/kg/injection, vehicle: carboxymethylcellulose (CMC)): 60 % of control | T/C (dose: 120.0 mg/kg/injection, vehicle: carboxymethylcellulose (CMC)): 10 % of control | T/C (dose: 125.0 mg/kg/injection, vehicle: olive oil, sesame oil, peanut oil): 65 % of control | T/C (dose: 200.0 mg/kg/injection, vehicle: carboxymethylcellulose (CMC)): 38 % of control | T/C (dose: 240.0 mg/kg/injection, vehicle: carboxymethylcellulose (CMC)): 2 % of control | T/C (dose: 250.0 mg/kg/injection, vehicle: olive oil, sesame oil, peanut oil): 43 % of control | T/C (dose: 400.0 mg/kg/injection, vehicle: carboxymethylcellulose (CMC)): 11 % of control | T/C (dose: 500.0 mg/kg/injection, vehicle: olive oil, sesame oil, peanut oil): 23 % of control
